According to publication PMC9011347, “Small-Molecule Inhibitors Targeting Lipolysis in Human Adipocytes” (Journal of the American Chemical Society, 2022):

Columns and labels:
Type in all cases: biochemical
HSL = HSL (Homo sapiens, UniProt Q05469); assay: Off-target lipid hydrolase assay, Expi293 lysates, p-NPV substrate; conditions: NG-497 100 µM, substrate pNPV
Protocol: (§1) Fig. S3: Investigation of off-target effects of NG-497 on structurally and functionally related lipid hydrolases. (a) PNPLA1-dependent formation of acylceramides was monitored in a cell-based assay in HEK293T cells. Experiments were performed in the presence or absence of NG-497 (40 µM) and the non-selective lipase inhibitor Orlistat (40 µM). Orlistat, but not NG-497, inhibited PNPLA1/CGI-58-dependent ω-O-acylceramide formation. (b-h) Enzymes were overexpressed in Expi293 cells and cell lysates were used as source of enzymatic activity. Cell lysates were incubated with the indicated substrates 1-oleoyl phosphatidylcholine (LPC), di-oleoyl phosphatidic acid (PA), di-octanoyl phosphatidylglycerol (PG), or para-nitrophenylvalerate (pNPV). Experiments were performed in the presence or absence of NG-497 (100 µM) and the formation of reaction products was monitored. Cell lysates of LacZ-transfected cells were used to detect basal cellular activity. As positive controls, enzymes were inactivated with lipase inhibitors Orlistat (40 µM), R-BEL (10 µM), KLH-45 (20 nM), HSLi (10 µM), or PMSF (10µM).
(§2) Data were calculated relative to the basal activity detected in LacZ-transfected controls. (i) Activity of purified human pancreatic lipase in the presence or absence of NG-497 (100 µM) and Orlistat (20 µM) using radiolabeled triolein as substrate. (j) Inhibition of LPL and HL by NG-497 (100 µM) was investigated in human post-heparin plasma using radiolabeled triolein as substrate.
(§3) LPL activity was inhibited using an anti-LPL antibody. All data are presented as mean ± S.D. Statistical significance was determined via ANOVA followed by Bonferroni post hoc test ( ***, p < 0.001).
(§4) (1 picture or pasted object on this page, not shown here)
(§5) Co-immunoprecipitation. […]
(§6) Analysis of toxicity in HepG2 hepatocytes. […] Release of LDH into the medium was analyzed using the Cytotoxicity Detection Kit PLUS (LDH) (MilliporeSigma) according to the manufacturer’s instructions. Cytotoxicity was calculated as relative LDH release as compared to fully lysed cells. […]

[1] = target: T1, carboxylesterase 2 (CES2) (Homo sapiens, UniProt O00748); assay: as above; conditions: NG-497 100 µM, substrate pNPV
T1 construct: made in house; host or cells: Expi293 cells, lysate
T1 sequence (O00748 27-559): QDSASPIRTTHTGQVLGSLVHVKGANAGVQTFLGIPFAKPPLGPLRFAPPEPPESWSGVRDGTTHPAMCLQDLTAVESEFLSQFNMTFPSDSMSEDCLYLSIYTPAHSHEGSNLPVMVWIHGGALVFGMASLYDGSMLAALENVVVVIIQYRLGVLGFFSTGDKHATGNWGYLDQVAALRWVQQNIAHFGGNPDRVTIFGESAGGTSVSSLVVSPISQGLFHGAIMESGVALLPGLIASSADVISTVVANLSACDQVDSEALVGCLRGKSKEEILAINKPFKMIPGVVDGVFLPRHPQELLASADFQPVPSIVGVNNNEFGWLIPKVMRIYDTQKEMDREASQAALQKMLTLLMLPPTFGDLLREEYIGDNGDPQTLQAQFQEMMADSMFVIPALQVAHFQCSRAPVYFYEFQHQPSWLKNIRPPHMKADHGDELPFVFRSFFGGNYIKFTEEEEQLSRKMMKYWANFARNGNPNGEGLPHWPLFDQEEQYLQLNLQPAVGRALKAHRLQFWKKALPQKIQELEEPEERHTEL
Protocol: as §1, §2, §3, §4, §5, §6

[2] = target: T2, DDHD domain-containing protein 2 (DDHD2) (Homo sapiens, UniProt O94830); assay: as above; conditions: NG-497 100 µM, substrate pNPV
T2 construct: made in house; host or cells: Expi293 cells, lysate
T2 sequence (O94830 whole entry, the tested form may be a part): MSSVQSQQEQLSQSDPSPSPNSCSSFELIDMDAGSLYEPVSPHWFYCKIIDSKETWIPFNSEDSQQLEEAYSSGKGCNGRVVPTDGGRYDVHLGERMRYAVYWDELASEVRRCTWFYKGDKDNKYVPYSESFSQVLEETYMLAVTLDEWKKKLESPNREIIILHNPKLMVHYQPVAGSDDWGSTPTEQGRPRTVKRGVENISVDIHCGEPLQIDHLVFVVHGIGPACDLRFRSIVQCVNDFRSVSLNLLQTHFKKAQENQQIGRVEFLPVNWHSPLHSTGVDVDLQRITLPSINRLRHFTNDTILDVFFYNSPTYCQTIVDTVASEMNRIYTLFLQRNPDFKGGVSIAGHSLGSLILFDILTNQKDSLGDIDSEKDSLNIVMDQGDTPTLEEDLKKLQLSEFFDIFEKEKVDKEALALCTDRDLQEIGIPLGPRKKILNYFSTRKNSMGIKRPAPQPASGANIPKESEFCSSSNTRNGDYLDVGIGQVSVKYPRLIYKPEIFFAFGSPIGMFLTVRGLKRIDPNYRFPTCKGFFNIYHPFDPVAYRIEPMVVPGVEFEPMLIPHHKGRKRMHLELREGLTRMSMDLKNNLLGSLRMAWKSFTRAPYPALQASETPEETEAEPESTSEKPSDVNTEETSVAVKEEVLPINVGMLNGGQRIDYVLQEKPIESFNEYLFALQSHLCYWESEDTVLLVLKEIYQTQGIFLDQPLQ
Protocol: as §1, §2, §3, §4, §5, §6

human pancreatic lipase = target: T3, human pancreatic lipase (Homo sapiens, UniProt P16233); assay: Activity of purified pancreatic lipase, radiolabeled triolein; conditions: NG-497 100 µM
T3 construct: purchased MilliporeSigma SRE0028
T3 sequence (P16233 17-465): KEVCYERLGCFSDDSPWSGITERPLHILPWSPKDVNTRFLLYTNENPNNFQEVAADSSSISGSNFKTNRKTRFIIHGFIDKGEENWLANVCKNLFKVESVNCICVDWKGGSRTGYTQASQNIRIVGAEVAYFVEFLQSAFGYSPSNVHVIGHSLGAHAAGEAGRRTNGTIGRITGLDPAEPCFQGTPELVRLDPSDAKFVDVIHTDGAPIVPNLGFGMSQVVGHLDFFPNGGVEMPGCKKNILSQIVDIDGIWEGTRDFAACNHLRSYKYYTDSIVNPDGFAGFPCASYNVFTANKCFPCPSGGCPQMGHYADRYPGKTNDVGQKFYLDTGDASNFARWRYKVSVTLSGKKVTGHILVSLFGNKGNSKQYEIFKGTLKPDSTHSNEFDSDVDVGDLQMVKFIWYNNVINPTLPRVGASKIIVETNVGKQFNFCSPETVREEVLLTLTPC
Protocol: Fig. S3: Investigation of off-target effects of NG-497 on structurally and functionally related lipid hydrolases. (a) PNPLA1-dependent formation of acylceramides was monitored in a cell-based assay in HEK293T cells. Experiments were performed in the presence or absence of NG-497 (40 µM) and the non-selective lipase inhibitor Orlistat (40 µM). Orlistat, but not NG-497, inhibited PNPLA1/CGI-58-dependent ω-O-acylceramide formation. (b-h) Enzymes were overexpressed in Expi293 cells and cell lysates were used as source of enzymatic activity. […] Experiments were performed in the presence or absence of NG-497 (100 µM) and the formation of reaction products was monitored. […]
Data were calculated relative to the basal activity detected in LacZ-transfected controls. […]
LPL activity was inhibited using an anti-LPL antibody. All data are presented as mean ± S.D. Statistical significance was determined via ANOVA followed by Bonferroni post hoc test ( ***, p < 0.001). […]
Released free fatty acids were quantified via NEFA C kit (Fujifilm Wako Chemicals, Neuss, Germany) and release of p-nitrophenol was measured at 405 nm. […] Cellular ω-O-acylceramide formation was monitored using [1-14C]linoleic acid as tracer. […] The activity of purified human pancreatic lipase (MilliporeSigma #SRE0028) was determined as previously described7 in the presence or absence of NG-497 (100µM) or Orlistat (20 µM). […]

Sequence of HSL (Q05469 302-1076 limits assumed): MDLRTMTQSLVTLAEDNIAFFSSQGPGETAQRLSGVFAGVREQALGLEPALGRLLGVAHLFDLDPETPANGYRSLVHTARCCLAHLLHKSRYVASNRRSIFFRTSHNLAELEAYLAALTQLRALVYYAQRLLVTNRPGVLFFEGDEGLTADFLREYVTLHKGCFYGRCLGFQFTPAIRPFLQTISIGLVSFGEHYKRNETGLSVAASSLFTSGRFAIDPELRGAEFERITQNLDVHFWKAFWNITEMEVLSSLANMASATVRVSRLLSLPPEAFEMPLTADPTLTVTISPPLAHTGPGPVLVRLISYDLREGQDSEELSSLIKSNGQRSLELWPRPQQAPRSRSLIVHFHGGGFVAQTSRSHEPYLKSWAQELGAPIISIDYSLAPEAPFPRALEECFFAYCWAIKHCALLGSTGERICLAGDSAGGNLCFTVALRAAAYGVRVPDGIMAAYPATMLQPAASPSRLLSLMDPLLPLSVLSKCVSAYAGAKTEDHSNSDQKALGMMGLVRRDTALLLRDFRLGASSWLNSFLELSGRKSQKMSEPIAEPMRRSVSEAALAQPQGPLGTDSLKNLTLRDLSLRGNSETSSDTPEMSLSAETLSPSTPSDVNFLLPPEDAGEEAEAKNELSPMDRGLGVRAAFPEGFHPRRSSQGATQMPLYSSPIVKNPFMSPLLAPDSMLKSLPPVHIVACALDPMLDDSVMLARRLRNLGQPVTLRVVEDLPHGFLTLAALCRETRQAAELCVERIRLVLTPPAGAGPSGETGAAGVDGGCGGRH

CCOc1ccc(-c2cc(OC)cc(C(=O)OC(C)C)n2)cc1 [NG-497]
did not observe inhibition: inhibition of HSL (HSL) | inhibition of CES2 [1] | inhibition of DDHD2 [2] | inhibition of pancreatic lipase (human pancreatic lipase)
